# In ChEMBL document CHEMBL1141350, “Pentaketides relating to aspinonene and dihydroaspyrone from a marine-derived fungus, Aspergillus ostianus” (2007):
# Activity calls are given as the source filed them. The calls are words filed in the database; no cut-off is given here.
# Columns and labels:
# Staphylococcus aureus = assay: Antibacterial activity against methicillin-resistant Staphylococcus aureus at 100 ug/disc; format: functional, organism-based
# L1210 = assay: Cytotoxicity against mouse L1210 cells at 25 ppm; format: functional
SMILES,Activity (Staphylococcus aureus),inhibition at 25 ppm (L1210) [%],Activity (L1210)
C[C@H](O)/C=C(/C=C/[C@H](C)O)CO,inactive,–,–
CO[C@](C(=O)O[C@@H](C)CC1=C[C@H](O)[C@@H](C)OC1=O)(c1ccccc1)C(F)(F)F,–,25,–
C[C@H](O)/C=C/[C@@](O)(CO)[C@@H]1O[C@H]1C [ASPINONENE],inactive,27,–
CC(=O)/C=C/C(=C/[C@H](C)O)CO,inactive,–,–
C[C@H](O)CC1=C[C@H](O)[C@@H](C)OC1=O,inactive,–,–
C[C@H](O)/C=C(/C=C/[C@@H](C)O)CO,inactive,–,inactive
